Data published in US20240381760A1, “Compound, Semiconductor Layer Comprising Compound and Organic Electronic Device” (Novaled GmbH, priority 2021, published 2024).

How the values were obtained:
Format in all cases: physicochemical
[1] = Sublimation temperature Tsubl in sublimation apparatus; details: 10−5 mbar
Source text: Under nitrogen in a glovebox, 0.5 to 5 g compound are loaded into the evaporation source of a sublimation apparatus. The sublimation apparatus consist of an inner glass tube consisting of bulbs with a diameter of 3 cm which are placed inside a glass tube with a diameter of 3.5 cm. The sublimation apparatus is placed inside a tube oven (Creaphys DSU 05/2.1). The sublimation apparatus is evacuated via a membrane pump (Pfeiffer Vacuum MVP 055-3C) and a turbo pump (Pfeiffer Vacuum THM071 YP). The pressure is measured between the sublimation apparatus and the turbo pump using a pressure gauge (Pfeiffer Vacuum PKR 251). When the pressure has been reduced to 10−5 mbar, the temperature is increased in increments of 10 to 30 K till the compound starts to be deposited in the harvesting zone of the sublimation apparatus. The temperature is further increased in increments of 10 to 30 K till a sublimation rate is achieved where the compound in the source is visibly depleted over 30 min to 1 hour and a substantial amount of compound has accumulated in the harvesting zone. The sublimation temperature, also named Tsubl, is the temperature inside the sublimation apparatus at which the compound is deposited in the harvesting zone at a visible rate and is measured in degree Celsius.

[2] = Rate onset temperature TRO in VTE source with QCM detector; details: 15 K/min, less than 10−5 mbar
Description: The rate onset temperature (TRO) is determined by loading 100 mg compound into a VTE source. As VTE source a point source for organic materials may be used as supplied by Kurt J. Lesker Company (www.lesker.com) or CreaPhys GmbH (http://www.creaphys.com). The VTE source is heated at a constant rate of 15 K/min at a pressure of less than 10−5 mbar and the temperature inside the source measured with a thermocouple. Evaporation of the compound is detected with a QCM detector which detects deposition of the compound on the quartz crystal of the detector. The deposition rate on the quartz crystal is measured in Angstrom per second. To determine the rate onset temperature, the deposition rate is plotted against the VTE source temperature. The rate onset is the temperature at which noticeable deposition on the QCM detector occurs. For accurate results, the VTE source is heated and cooled three time and only results from the second and third run are used to determine the rate onset temperature.
To achieve good control over the evaporation rate of an organic compound, the rate onset temperature may be in the range of 200 to 255° C. If the rate onset temperature is below 200° C. the evaporation may be too rapid and therefore difficult to control. If the rate onset temperature is above 255° C. the evaporation rate may be too low which may result in low tact time and decomposition of the organic compound in VTE source may occur due to prolonged exposure to elevated temperatures.
The rate onset temperature is an indirect measure of the volatility of a compound. The higher the rate onset temperature the lower is the volatility of a compound.

[3] = Decomposition temperature Tdec by TGA-DSC; details: onset of decomposition in TGA, 10 K/min, nitrogen
Description: The decomposition temperature Tdec is measured by loading a sample of 9 to 11 mg into a Mettler Toledo 100 μL aluminum pan without lid under nitrogen in a Mettler Toledo TGA-DSC 1 machine. The following heating program was used: 25° C. isothermal for 3 min; 25° C. to 600° C. with 10 K/min. The decomposition temperature was determined based on the onset of the decomposition in TGA.

[4] = Solubility in benzonitrile

Row | Sublimation temperature Tsubl [1] | Rate onset temperature TRO [2] [°C] | Tdec [3] [°C] | Compound | Solubility in benzonitrile ([4]; at 20° C.) [mg/mL] | Solubility in benzonitrile ([4]; at 60° C. (footnote 2)) [mg/ml^2)]
1 | 95-100 °C | <100 | >185 | CC(=O)/C=C(\[O-])C(F)(F)F.CC(=O)/C=C(\[O-])C(F)(F)F.[Cu+2] [CC-2, Cu(tfac)2] | – | –
2 | 170 °C | 101 | >260 | CC(C)(C)/C([O-])=C/C(=O)C(F)(F)C(F)(F)C(F)(F)F.CC(C)(C)/C([O-])=C/C(=O)C(F)(F)C(F)(F)C(F)(F)F.CC(C)(C)/C([O-])=C/C(=O)C(F)(F)C(F)(F)C(F)(F)F.[La+3] [CC-6, La(fod)3] | – | –
3 | 120 °C | <100 | >200 | CC(C)(C)C(=O)C=C([O-])C(F)(F)C(F)(F)C(F)(F)F.CC(C)(C)C(=O)C=C([O-])C(F)(F)C(F)(F)C(F)(F)F.CC(C)(C)C(=O)C=C([O-])C(F)(F)C(F)(F)C(F)(F)F.[Bi+3] [CC-5, Bi(fod)3] | – | –
4 | decomposition | <100 | – | O=C(C=C([O-])C(F)(F)F)C(F)(F)F.O=C(C=C([O-])C(F)(F)F)C(F)(F)F.O=C(C=C([O-])C(F)(F)F)C(F)(F)F.[Bi+3] [CC-4, Bi(hfac)3] | – | –
5 | 110-120 °C | <100 | >280 | CC(=O)C=C(C)[O-].CC(=O)C=C(C)[O-].[Cu+2] [CC-1, Cu(acac)2] | – | –
6 | decomposition | <100 | >100 | CC(=O)C=C([O-])C(F)(F)F.CC(=O)C=C([O-])C(F)(F)F.CC(=O)C=C([O-])C(F)(F)F.[Bi+3] [CC-3, Bi(tfac)3] | – | –

Row | Compound | Sublimation temperature Tsubl [1] | Rate onset temperature TRO [2] [°C] | Tdec [3] [°C] | Solubility in benzonitrile ([4]; at 20° C.) [mg/mL] | Solubility in benzonitrile ([4]; at 60° C. (footnote 2)) [mg/ml^2)]
7 | N#C/C(C(=O)C(F)(F)C(F)(F)F)=C(/[O][Cu][O]/C(=C(/C#N)C(=O)C(F)(F)C(F)(F)F)c1ccc(-c2cc(C(F)(F)F)cc(C(F)(F)F)c2)cc1)c1ccc(-c2cc(C(F)(F)F)cc(C(F)(F)F)c2)cc1 [MC-2, bis(((Z)-1-(3′,5′-bis(trifluoromethyl)-[1,1′-biphenyl]-4-yl)-2-cyano-4,4,5,5,5-pentafluoro-3-oxopent-1-en-1-yl)oxy)copper] | decomposition | – | >330 | >10 | –
8 | C/C(C(=O)c1ccnc(C(F)(F)F)c1)=C(/[O][Cu][O]/C(=C(/C)C(=O)c1ccnc(C(F)(F)F)c1)c1ccnc(C(F)(F)F)c1)c1ccnc(C(F)(F)F)c1 [MC-3, bis(((Z)-2-methyl-3-oxo-1,3-bis(2-(trifluoromethyl)pyridin-4-yl)prop-1-en-1-yl)oxy)copper] | decomposition | – | >300 | – | 10
9 | N#C/C(C(=O)c1cc(C(F)(F)F)cc(C(F)(F)F)c1)=C(/[O][Cu][O]/C(=C(/C#N)C(=O)c1cc(C(F)(F)F)cc(C(F)(F)F)c1)c1cc(C(F)(F)F)cc(C(F)(F)F)c1)c1cc(C(F)(F)F)cc(C(F)(F)F)c1 [MC-1, bis(((Z)-1,3-bis(3,5-bis(trifluoromethyl)phenyl)-2-cyano-3-oxoprop-1-en-1-yl)oxy)copper] | 261 °C | 204 | >319 | – | –
